Experimental data reported in patent publication US20070128217A1 (priority 2003, published 2007).

Columns and labels:
[1] = tested on: antibodies in sera from SARS patients (sera 1a, 1b, 2, 6, 37, 62, London, SARS-yellow, SARS-green); assay type: binding, human; set-up: Binding of serum 6 to linear peptides of protein X1 of SARS-CoV Urbani / Binding of serum 37 to linear peptides of protein X1 of SARS-CoV Urbani / Binding of serum 6 to looped/cyclic peptide (PEPSCAN-ELISA) / Binding of serum 37 to looped/cyclic peptide (PEPSCAN-ELISA) / Binding of serum 37 to looped/cyclic peptides of protein X1 of SARS-CoV Urbani / Binding of serum 6 to linear peptides of protein X2 / Binding of serum 37 to linear peptides of protein X2 / Binding of serum 37 to looped/cyclic peptides of protein X2 of SARS-CoV Urbani / Binding of serum 6 to linear peptides of protein M of SARS-CoV Urbani / Binding of serum 37 to linear peptides of protein M of SARS-CoV Urbani / Binding of serum 6 to looped/cyclic peptides of protein M of SARS-CoV Urbani / Binding of serum 37 to looped/cyclic peptides of protein M of SARS-CoV Urbani / Binding of serum 6 to linear peptides of protein X3 of SARS-CoV Urbani / Binding of serum 37 to linear peptides of protein X3 of SARS-CoV Urbani / Binding of serum 37 to looped/cyclic peptides of protein X3 of SARS-CoV Urbani / Binding of serum 6 to linear peptides of protein X4 of SARS-CoV Urbani / Binding of serum 37 to linear peptides of protein X4 of SARS-CoV Urbani / Binding of serum 37 to looped/cyclic peptides of protein X4 of SARS-CoV Urbani / Binding of serum 6 to linear peptides of protein X5 of SARS-CoV Urbani / Binding of serum 37 to linear peptides of protein X5 of SARS-CoV Urbani / Binding of serum 37 to looped/cyclic peptides of protein X5 of SARS-CoV Urbani / Binding of serum 6 to linear peptides of protein N of SARS-CoV Urbani / Binding of serum 37 to linear peptides of protein N of SARS-CoV Urbani / Binding of serum 6 to linear peptide (PEPSCAN-ELISA) / Binding of serum 1a to looped/cyclic peptides of protein N of SARS-CoV Urbani / Binding of serum 1b to looped/cyclic peptides of protein N of SARS-CoV Urbani / Binding of serum 2 to looped/cyclic peptides of protein N of SARS-CoV Urbani / Binding of serum 6 to looped/cyclic peptides of protein N of SARS-CoV Urbani / Binding of serum 37 to looped/cyclic peptides of protein N of SARS-CoV Urbani / Binding of serum 62 to looped/cyclic peptides of protein N of SARS-CoV Urbani / Binding of serum London to looped/cyclic peptides of protein N of SARS-CoV Urbani / Binding of serum SARS-green to looped/cyclic peptides of protein N of SARS-CoV Urbani: unit not given here
[2] = tested on: control sera (pooled serum of ten healthy LUMC hospital workers; commercial negative donor pooled serum from the Dutch bloodbank); assay type: binding, human; set-up: Binding of Control serum LUMC to linear peptides / Binding of Control serum Blood-bank to linear peptides / Binding of Control serum LUMC to looped peptides / Binding of Control Serum Blood-Bank to Looped peptides / Binding of Control serum LUMC to linear peptides of the protein M of SARS-CoV Urbani / Binding of Control serum Blood-bank to linear peptides of the protein M of SARS-CoV Urbani / Binding of Control serum LUMC to looped peptides of the protein M of SARS-CoV Urbani / Binding of Control Serum Blood-Bank to Looped peptides of the protein M of SARS-CoV Urbani: unit not given here
[3] = tested on: rabbit serum obtained by immunizing a rabbit with the SARS-CoV strain Frankfurt 1; assay type: binding; set-up: Binding of a rabbit serum to linear peptides / Binding of a rabbit serum to looped peptides / Rabbit serum linear peptides / Rabbit serum looped peptides / Binding of a rabbit serum to linear peptides of protein N of SARS-CoV Urbani (Rabbit serum linear peptides) / Binding of a rabbit serum to looped/cyclic peptides of protein N of SARS-CoV Urbani (Rabbit serum looped peptides): unit not given here

## IVAALVFLILCFTIK
[1]
  Binding of serum 1a to linear peptides of protein X4 of SARS-CoV Urbani: 0.6
  Binding of serum 1a to looped/cyclic peptides of protein X4 of SARS-CoV Urbani: 0.7
  Binding of serum 1b to linear peptides of protein X4 of SARS-CoV Urbani: 0.6
  Binding of serum 1b to looped/cyclic peptides of protein X4 of SARS-CoV Urbani: 0.4
  Binding of serum 2 to linear peptides of protein X4 of SARS-CoV Urbani: 0.4
  Binding of serum 2 to looped/cyclic peptides of protein X4 of SARS-CoV Urbani: 0.6
  Binding of serum 6 to linear peptides of protein X4 of SARS-CoV Urbani: 0.5
  Binding of serum 6 to looped/cyclic peptides of protein X4 of SARS-CoV Urbani: 1.4
  Binding of serum 37 to linear peptides of protein X4 of SARS-CoV Urbani: 0.7
  Binding of serum 37 to looped/cyclic peptides of protein X4 of SARS-CoV Urbani: 0.7
  Binding of serum 62 to linear peptides of protein X4 of SARS-CoV Urbani: 0.7
  Binding of serum 62 to looped/cyclic peptides of protein X4 of SARS-CoV Urbani: 0.7
  Binding of serum London to linear peptides of protein X4 of SARS-CoV Urbani: 0.7
  Binding of serum London to looped/cyclic peptides of protein X4 of SARS-CoV Urbani: 3.0
  Binding of serum SARS-green to linear peptides of protein X4 of SARS-CoV Urbani: 0.5
  Binding of serum SARS-green to looped/cyclic peptides of protein X4 of SARS-CoV Urbani: 0.5
  Binding of serum SARS-yellow to linear peptides of protein X4 of SARS-CoV Urbani: 0.6
  Binding of serum SARS-yellow to looped/cyclic peptides of protein X4 of SARS-CoV Urbani: 0.7
[2]
  Binding of Control Serum Blood-Bank to Looped peptides: 0.8
  Binding of Control serum Blood-bank to linear peptides: 0.6
  Binding of Control serum LUMC to linear peptides: 0.5
  Binding of Control serum LUMC to looped peptides: 0.7
[3]
  Rabbit serum linear peptides: 0.4
  Rabbit serum looped peptides: 0.6

## IVGLMWLSYFVASFR
[1]
  Binding of serum 1a to linear peptides of protein M of SARS-CoV Urbani: 0.6
  Binding of serum 1a to looped/cyclic peptides of protein M of SARS-CoV Urbani: 0.7
  Binding of serum 1b to linear peptides of protein M of SARS-CoV Urbani: 0.4
  Binding of serum 1b to looped/cyclic peptides of protein M of SARS-CoV Urbani: 0.5
  Binding of serum 2 to linear peptides of protein M of SARS-CoV Urbani: 0.5
  Binding of serum 2 to looped/cyclic peptides of protein M of SARS-CoV Urbani: 1.0
  Binding of serum 6 to linear peptides of protein M of SARS-CoV Urbani: 0.3
  Binding of serum 6 to looped/cyclic peptides of protein M of SARS-CoV Urbani: 0.7
  Binding of serum 37 to linear peptides of protein M of SARS-CoV Urbani: 0.5
  Binding of serum 37 to looped/cyclic peptides of protein M of SARS-CoV Urbani: 0.7
  Binding of serum 62 to linear peptides of protein M of SARS-CoV Urbani: 0.7
  Binding of serum 62 to looped/cyclic peptides of protein M of SARS-CoV Urbani: 0.7
  Binding of serum London to linear peptides of protein M of SARS-CoV Urbani: 0.3
  Binding of serum London to looped/cyclic peptides of protein M of SARS-CoV Urbani: 0.2
  Binding of serum SARS-green to linear peptides of protein M of SARS-CoV Urbani: 0.2
  Binding of serum SARS-green to looped/cyclic peptides of protein M of SARS-CoV Urbani: 0.1
  Binding of serum SARS-yellow to linear peptides of protein M of SARS-CoV Urbani: 0.1
  Binding of serum SARS-yellow to looped/cyclic peptides of protein M of SARS-CoV Urbani: 0.6
[2]
  Binding of Control Serum Blood-Bank to Looped peptides of the protein M of SARS-CoV Urbani: 0.7
  Binding of Control serum Blood-bank to linear peptides of the protein M of SARS-CoV Urbani: 0.5
  Binding of Control serum LUMC to linear peptides of the protein M of SARS-CoV Urbani: 0.2
  Binding of Control serum LUMC to looped peptides of the protein M of SARS-CoV Urbani: 0.6
[3]
  Rabbit serum linear peptides: 0.3
  Rabbit serum looped peptides: 0.5

## IWNLDVIISSIVRQL
[1]
  Binding of serum 1a to linear peptides of protein X3 of SARS-CoV Urbani: 0.7
  Binding of serum 1a to looped/cyclic peptides of protein X3 of SARS-CoV Urbani: 0.5
  Binding of serum 1b to linear peptides of protein X3 of SARS-CoV Urbani: 0.3
  Binding of serum 1b to looped/cyclic peptides of protein X3 of SARS-CoV Urbani: 0.4
  Binding of serum 2 to linear peptides of protein X3 of SARS-CoV Urbani: 0.5
  Binding of serum 2 to looped/cyclic peptides of protein X3 of SARS-CoV Urbani: 0.5
  Binding of serum 6 to linear peptides of protein X3 of SARS-CoV Urbani: 0.5
  Binding of serum 6 to looped/cyclic peptides of protein X3 of SARS-CoV Urbani: 0.6
  Binding of serum 37 to linear peptides of protein X3 of SARS-CoV Urbani: 0.6
  Binding of serum 37 to looped/cyclic peptides of protein X3 of SARS-CoV Urbani: 0.5
  Binding of serum 62 to linear peptides of protein X3 of SARS-CoV Urbani: 0.6
  Binding of serum 62 to looped/cyclic peptides of protein X3 of SARS-CoV Urbani: 0.4
  Binding of serum London to linear peptides of protein X3 of SARS-CoV Urbani: 0.6
  Binding of serum London to looped/cyclic peptides of protein X3 of SARS-CoV Urbani: 0.2
  Binding of serum SARS-green to linear peptides of protein X3 of SARS-CoV Urbani: 0.4
  Binding of serum SARS-green to looped/cyclic peptides of protein X3 of SARS-CoV Urbani: 0.3
  Binding of serum SARS-yellow to linear peptides of protein X3 of SARS-CoV Urbani: 0.2
  Binding of serum SARS-yellow to looped/cyclic peptides of protein X3 of SARS-CoV Urbani: 0.6
[2]
  Binding of Control Serum Blood-Bank to Looped peptides of the protein X3 of SARS-CoV Urbani: 0.7
  Binding of Control serum Blood-bank to linear peptides of the protein X3 of SARS-CoV Urbani: 0.6
  Binding of Control serum LUMC to linear peptides of the protein X3 of SARS-CoV Urbani: 0.5
  Binding of Control serum LUMC to looped peptides of the protein X3 of SARS-CoV Urbani: 0.7
[3]
  Rabbit serum linear peptides: 0.2
  Rabbit serum looped peptides: 0.4
